Reference: patent US8802597B2, “Herbicidal pyrimidines” (E I du Pont de Nemours and Company, priority 2003, dated 2014)
Like-named read-outs stand apart in the source and are kept apart here.

How the values were obtained:
Test in all cases: Test A pre/postemergence
Type in all cases: in vivo
[1] = system: barnyardgrass (Echinochloa crus-galli); conditions: for pest or weed control at 125 g/ha / pest or weed control at 500 g/ha: Echinochloa crus-galli, 240 h, read-out: Plant response rating, Barnyardgrass
Method: (§1) Seeds of barnyardgrass (Echinochloa crus-galli), crabgrass (Digitaria sanguinalis), giant foxtail (Setaria faberi), morningglory (Ipomoea spp.), redroot pigweed (Amaranthus retroflexus) and velvetleaf (Abutilon theophrasti) were planted into a blend of loam soil and sand and treated preemergence with a directed soil spray using test chemicals formulated in a non-phytotoxic solvent mixture which included a surfactant. At the same time these species were also treated with postemergence applications of test chemicals formulated in the same manner.
(§2) Plants ranged in height from 2 to 10 cm and were in the 1- to 2-leaf stage for the postemergence treatment. Treated plants and untreated controls were maintained in a greenhouse for approximately ten days, after which time all treated plants were compared to untreated controls and visually evaluated for injury. Plant response ratings, summarized in Table A, are based on a 0 to 100 scale where 0 is no effect and 100 is complete control. A dash (-) response means no test results.

[2] = system: crabgrass (Digitaria sanguinalis); conditions: for pest or weed control at 125 g/ha / pest or weed control at 500 g/ha: Digitaria sanguinalis, 240 h, read-out: Plant response rating, Crabgrass
Method: as §1, §2

[3] = system: giant foxtail (Setaria faberi); conditions: for pest or weed control at 125 g/ha / pest or weed control at 500 g/ha: Setaria faberi, 240 h, read-out: Plant response rating, Foxtail, Giant
Method: as §1, §2

[4] = system: morningglory (Ipomoea spp.); conditions: for pest or weed control at 125 g/ha / pest or weed control at 500 g/ha: Ipomoea, 240 h, read-out: Plant response rating, Morningglory
Method: as §1, §2

[5] = system: redroot pigweed (Amaranthus retroflexus); conditions: for pest or weed control at 125 g/ha / pest or weed control at 500 g/ha: Amaranthus retroflexus, 240 h, read-out: Plant response rating, Pigweed
Method: as §1, §2

[6] = system: velvetleaf (Abutilon theophrasti); conditions: for pest or weed control at 125 g/ha / pest or weed control at 500 g/ha: Abutilon theophrasti, 240 h, read-out: Plant response rating, Velvetleaf
Method: as §1, §2

[7] = Postemergence, 125 g ai/ha, 0 to 100 scale (0 no effect, 100 complete control)
[8] = Postemergence, 500 g ai/ha, 0 to 100 scale (0 no effect, 100 complete control)
[9] = Preemergence, 125 g ai/ha, 0 to 100 scale where 0 is no effect and 100 is complete control, approximately ten days
[10] = Preemergence, 500 g ai/ha, 0 to 100 scale where 0 is no effect and 100 is complete control, approximately ten days
[11] = post-emergence, Postemergence, 125 g ai/ha, 0 to 100 scale (0 no effect, 100 complete control)
[12] = post-emergence, Postemergence, 500 g ai/ha, 0 to 100 scale (0 no effect, 100 complete control)
[13] = pre-emergence, Preemergence, 125 g ai/ha, 0 to 100 scale where 0 is no effect and 100 is complete control, approximately ten days
[14] = pre-emergence, Preemergence, 500 g ai/ha, 0 to 100 scale where 0 is no effect and 100 is complete control, approximately ten days

Cc1ccc(-c2nc(N)c(Cl)c(C(=O)O)n2)cc1F [Compound 87]
Plant response rating, Barnyardgrass [1, 7]: 50 | Plant response rating, Barnyardgrass [1, 8]: 90 | Plant response rating, Barnyardgrass [1, 9]: 0 | Plant response rating, Barnyardgrass [1, 10]: 20 | Plant response rating, Crabgrass [2, 7]: 0 | Plant response rating, Crabgrass [2, 8]: 10 | Plant response rating, Crabgrass [2, 9]: 10 | Plant response rating, Crabgrass [2, 10]: 75 | Plant response rating, Foxtail, Giant [3, 7]: 0 | Plant response rating, Foxtail, Giant [3, 8]: 30 | Plant response rating, Foxtail, Giant [3, 9]: 0 | Plant response rating, Foxtail, Giant [3, 10]: 0 | Plant response rating, Morningglory [4, 7]: 0 | Plant response rating, Morningglory [4, 8]: 15 | Plant response rating, Morningglory [4, 9]: 0 | Plant response rating, Morningglory [4, 10]: 20 | Plant response rating, Pigweed [5, 7]: 55 | Plant response rating, Pigweed [5, 8]: 90 | Plant response rating, Pigweed [5, 9]: 85 | Plant response rating, Pigweed [5, 10]: 100 | Plant response rating, Velvetleaf [6, 7]: 90 | Plant response rating, Velvetleaf [6, 8]: 95 | Plant response rating, Velvetleaf [6, 9]: 25 | Plant response rating, Velvetleaf [6, 10]: 95

NC(=O)c1nc(C2CC2)nc(N)c1Br [Compound 20]
pest or weed control at 125 g/ha [1, 11]: 0% | pest or weed control at 500 g/ha [1, 12]: 0% | pest or weed control at 125 g/ha [1, 13]: 0% | pest or weed control at 500 g/ha [1, 14]: 0% | pest or weed control at 125 g/ha [2, 11]: 0% | pest or weed control at 500 g/ha [2, 12]: 0% | pest or weed control at 125 g/ha [2, 13]: 0% | pest or weed control at 500 g/ha [2, 14]: 0% | pest or weed control at 125 g/ha [3, 11]: 0% | pest or weed control at 500 g/ha [3, 12]: 0% | pest or weed control at 125 g/ha [3, 13]: 0% | pest or weed control at 500 g/ha [3, 14]: 0% | pest or weed control at 125 g/ha [4, 11]: 20% | pest or weed control at 500 g/ha [4, 12]: 40% | pest or weed control at 125 g/ha [4, 13]: 10% | pest or weed control at 500 g/ha [4, 14]: 60% | pest or weed control at 125 g/ha [5, 11]: 40% | pest or weed control at 500 g/ha [5, 12]: 60% | pest or weed control at 125 g/ha [5, 13]: 40% | pest or weed control at 500 g/ha [5, 14]: 70% | pest or weed control at 125 g/ha [6, 11]: 10% | pest or weed control at 500 g/ha [6, 12]: 55% | pest or weed control at 125 g/ha [6, 13]: 0% | pest or weed control at 500 g/ha [6, 14]: 70%

COC(OC)c1nc(-c2ccc(I)cc2)nc(N)c1Cl [Compound 134]
Plant response rating, Barnyardgrass [1, 7]: 0 | Plant response rating, Barnyardgrass [1, 8]: 0 | Plant response rating, Barnyardgrass [1, 9]: 0 | Plant response rating, Barnyardgrass [1, 10]: 0 | Plant response rating, Crabgrass [2, 7]: 0 | Plant response rating, Crabgrass [2, 8]: 0 | Plant response rating, Crabgrass [2, 9]: 0 | Plant response rating, Crabgrass [2, 10]: 0 | Plant response rating, Foxtail, Giant [3, 7]: 0 | Plant response rating, Foxtail, Giant [3, 8]: 0 | Plant response rating, Foxtail, Giant [3, 9]: 0 | Plant response rating, Foxtail, Giant [3, 10]: 0 | Plant response rating, Morningglory [4, 7]: 0 | Plant response rating, Morningglory [4, 8]: 0 | Plant response rating, Morningglory [4, 9]: 0 | Plant response rating, Morningglory [4, 10]: 0 | Plant response rating, Pigweed [5, 7]: 15 | Plant response rating, Pigweed [5, 8]: 30 | Plant response rating, Pigweed [5, 9]: 0 | Plant response rating, Pigweed [5, 10]: 0 | Plant response rating, Velvetleaf [6, 7]: 50 | Plant response rating, Velvetleaf [6, 8]: 55 | Plant response rating, Velvetleaf [6, 9]: 0 | Plant response rating, Velvetleaf [6, 10]: 0

CS(=O)(=O)NC(=O)c1nc(-c2ccc(Cl)cc2)nc(N)c1Cl [Compound 131]
Plant response rating, Barnyardgrass [1, 7]: 10 | Plant response rating, Barnyardgrass [1, 8]: 20 | Plant response rating, Barnyardgrass [1, 9]: 0 | Plant response rating, Barnyardgrass [1, 10]: 0 | Plant response rating, Crabgrass [2, 7]: 10 | Plant response rating, Crabgrass [2, 8]: 30 | Plant response rating, Crabgrass [2, 9]: 0 | Plant response rating, Crabgrass [2, 10]: 0 | Plant response rating, Foxtail, Giant [3, 7]: 15 | Plant response rating, Foxtail, Giant [3, 8]: 30 | Plant response rating, Foxtail, Giant [3, 9]: 0 | Plant response rating, Foxtail, Giant [3, 10]: 0 | Plant response rating, Morningglory [4, 7]: 0 | Plant response rating, Morningglory [4, 8]: 20 | Plant response rating, Morningglory [4, 9]: 0 | Plant response rating, Morningglory [4, 10]: 0 | Plant response rating, Pigweed [5, 7]: 50 | Plant response rating, Pigweed [5, 8]: 70 | Plant response rating, Pigweed [5, 9]: 0 | Plant response rating, Pigweed [5, 10]: 0 | Plant response rating, Velvetleaf [6, 7]: 35 | Plant response rating, Velvetleaf [6, 8]: 60 | Plant response rating, Velvetleaf [6, 9]: 0 | Plant response rating, Velvetleaf [6, 10]: 0
